# Measured values: patent US20240003908A1, “POLYOL BIOMARKERS FOR CONGENITAL DISORDERS OF GLYCOSYLATION” (Mayo Foundation for Medical Education and Research, priority 2020, published 2024)
# Test system: child with PMM2-CDG
# Assay: Single patient (P1) study: clinical efficacy (ICARS, NPCRS, BMI, weight)
# Type: in vivo, human
# Details: same patient, five months acetazolamide before epalrestat; from 66
# Method: Prospectively collected clinical and laboratory data in 24 PMM2-CDG patients: The genetic, laboratory, metabolic, and clinical data of 24 PMM2-CDG patients were evaluated (TABLES 2A and 2B). Disease severity was assessed by Nijmegen Pediatric CDG Rating Scale (NPCRS), (most severe=82; mild (0-14), moderate (15-25), severe (>26)) (Achouitar et al., J Inherit Metab Dis 34:923-927, 2011; and Martinez-Monseny et al., Ann Neurol 85:740-751, 2019). Patient P1 and twin patients P4 and P5 also were discussed elsewhere (Qian et al., JIMD Rep 56:27-33, 2020; and Jaeken et al., Ped Res 14:179, 1980). P1, enrolled in a single IND clinical trial, was additionally evaluated by the International cooperative ataxia rating scale (ICARS) (Trouillas et al., J Neurol Sci 145:205-211, 1997), which assesses limb ataxia, dysarthria, posture and gait disturbances, and oculomotor disorders (0=normal; 100=most severe). Urinary polyols including sorbitol and mannitol were analyzed by GC/MS in 23 out of the 24 PMM2-CDG patients (patient P6 was deceased). In addition, functional in vitro data was collected from the fibroblasts of P1-P6, P8, P10, P17, P19, and P24.
# Study design: An open label, single patient (P1) compassionate use study was designed to assess the safety and tolerability of oral epalrestat therapy in a child with PMM2-CDG.
# Patient assessment: Prior to the first dose of epalrestat and at 1, 2, 3, 6, 8, 9, 12 months during treatment, concomitant medications and vital signs were recorded and the patient was evaluated using the NPCRS. In addition, blood was drawn for serum chemistry, hematology, and plasma levels of epalrestat. Urine was collected for polyol measurement at baseline and twice over the course of 12 months of therapy.
# Drug administration: Epalrestat was administered orally, 3 times per day (TID) before meals in a divided dose (0.8 mg/kg/day; 5 mg TID) of epalrestat (Ono Pharmaceuticals, Osaka, Japan) starting on Day 1 of the study.
# Safety and efficacy: Safety measures included vital signs, change in CBC, liver function (INR, bilirubin, transaminases, and albumin) in blood, change in liver elastography, and following the pharmacokinetic profile of epalrestat. The efficacy of epalrestat was studied by clinical follow up (physical exam, NPCRS, ICARS), standard laboratory tests, and transferrin glycoform analysis by mass spectrometry.
smiles,measurement,value
CC(=O)Nc1nnc(S(N)(=O)=O)s1 [acetazolamide],ICARS score,56
